Test results: ChEMBL document CHEMBL1150114, “Isolation and structure of a 20,21-epoxybufenolide series from "Ch'an Su"” (J Nat Prod, 2002)
Values after ≈ are worked out from the molar mass of the structure shown.

Columns and labels:
MH60 = test: Cytotoxicity against mouse MH60 cells after 72 hrs by MTT assay; type: functional, cell-based; conditions: MH60, 72 h
KB = test: Cytotoxicity against human KB cells after 72 hrs by MTT assay; type: functional, cell-based

Row | SMILES | IC50 (MH60) | IC50 (KB)
1 | C[C@]12CC[C@H](O)C[C@H]1CC[C@@H]1[C@@H]2CC[C@]2(C)[C@@H](c3ccc(=O)oc3)C[C@H]3O[C@]132 [BUFOGENIN] | 10.5 µg/mL (≈ 27.3 µM) | 1.34 µg/mL (≈ 3.48 µM)
2 | C[C@]12CCC(=O)C[C@H]1CC[C@@H]1[C@@H]2CC[C@]2(C)[C@@H]([C@@]34C=CC(=O)O[C@@H]3O4)C[C@H]3O[C@]132 | 8.54 µg/mL (≈ 21.4 µM) | 18.5 µg/mL (≈ 46.4 µM)
3 | C[C@]12CC[C@H](OC=O)C[C@H]1CC[C@@H]1[C@@H]2CC[C@]2(C)[C@@H]([C@]34C=CC(=O)O[C@H]3O4)C[C@H]3O[C@]132 | > 25 µg/mL | > 25 µg/mL
4 | C[C@]12CC[C@H](O)C[C@H]1CC[C@@H]1[C@@H]2CC[C@]2(C)[C@@H]([C@@]34C=CC(=O)O[C@@H]3O4)C[C@H]3O[C@]132 | 1.82 µg/mL (≈ 4.54 µM) | 10.9 µg/mL (≈ 27.2 µM)
5 | C[C@]12CC[C@H](OC=O)C[C@H]1CC[C@@H]1[C@@H]2CC[C@]2(C)[C@@H]([C@@]34C=CC(=O)O[C@@H]3O4)C[C@H]3O[C@]132 | > 25 µg/mL | > 25 µg/mL
6 | C[C@]12CC[C@H](O)C[C@H]1CC[C@@H]1[C@@H]2CC[C@]2(C)[C@@H]([C@]34C=CC(=O)O[C@H]3O4)C[C@H]3O[C@]132 | 1.8 µg/mL (≈ 4.49 µM) | 8.09 µg/mL (≈ 20.2 µM)
